According to patent publication US11504323B2, “Boundary surface charged contact lens for delivery” (Lynthera Corporation, priority 2020, dated 2022):
Converted amounts (≈) assume the structure as drawn. Structures can show the parent of a compound that is named as a salt. Where two headings read alike, the source gives them in different places.

Key:
[1] = Release of THCL and KTF from oleic acid loaded lenses in PBS at different pH; settings: release medium pH from 7.4 to 5.5
[2] = cited from earlier work
[3] = cited from earlier work; remark: listed apart in the source

Row | Structure (SMILES) | release kinetics of KTF as pH decreases [1] | solubility in PBS ([2]; pH 7) | solubility in PBS ([2]; pH 10) | Solubility in water [3]
1 | CN1CCC(=C2c3ccccc3CC(=O)c3sccc32)CC1 [KTF, ketotifen fumarate] | accelerated | 10500 µg/mL | 20 µg/mL | –
2 | CCCCCCCCCCCCCC(=O)O [Myristic acid] | – | – | – | 1 µM (≈ 0.228 µg/mL)
